# Laboratory results reported in patent US20070049538A1, “METHODS FOR USING CUCURBITACIN COMPOUNDS” (SOUTH DAKOTA STATE UNIVERSITY, priority 2005, published 2007).
# Read-outs that look alike come from different tables or passages of the source.
# Columns and labels:
# [1] = tested on: lipid peroxidation of microsomal suspension; assay: Microsomal Lipid Peroxidation Assay; type: biochemical; conditions: at 0.1 mM, both chemical and enzymatic assays
# Experimental: Cucurbitacin anti-lipid peroxidation was studied by the Microsomal Lipid Peroxidation Assay (Engineer et al., Biochemical Pharmacology 38(8): 1279-1285, 1989). Lipid peroxidation of microsomal suspension was induced both enzymatically and chemically and validated on the standard compound quercetin. […] Activity of 3 cucurbitacin analogs, B, E, and E-Me-ether was monitored at 0.1 mM indicating no inhibition in either the chemical or enzymatic assay.
# HSC-T6 cells [2] = assay: Cytotoxicity on HSC-T6 cells (experiment 3); type: cell-based, rat; conditions: read-out: Experiment 3 IC50 (T)
# From the text: Cytotoxicity of all cucurbitacin analogs was additionally measured in experiment 3 (Table 8).
# [3] = Chromatographic hydrophobicity index (CHI) by RP-HPLC in buffered methanol; type: physicochemical; conditions: for CHIMeOH: buffered methanol pH 7.0, Econosil C18 150 mm, Eq. (4)
# Experimental: (§1) We used Dynamax liquid chromatograph (Varian Chromatography Systems) with PDA-2 photodiode array UV detector, controlled by the Dynamax PC Chromatography Data System (v. 1.9) software and Dynamax dual pump solvent delivery system, model SD-200. […] Cucurbitacins analytical separation was optimized on Alltima C18 (Alltech; 250 mm×4.6 mm, 5 μm) HPLC column, at gradient elution in acetonitrile (ACN, 30-70% ACN in 57 min), and in MeOH (60-75% MeOH in 50 min). Cucurbitacins stock concentration of 10^−2M in DMSO:ethanol (1:1) was standardized against pure cucurbitacin I (Indofine Chemical Company, Hillsborough, N.J.) by analytical HPLC means. Compounds CHI was measured in both ACN, by using Alltima C18 column, and in MeOH, by using Econosil C18 column (Alltech; 150 mm×4.6 mm, 5 μm). Analytical separations were conducted at a flow rate of 1 ml/min. The aqueous phase was buffered for the CHI measurement. For this purpose, solid ammonium acetate (Fisher Sci. Co., Fair Lawn, N.J.) was dissolved in deionized distilled water at 50 mM final concentration and its pH adjusted to 7.0.
# A standard mixture of 10 compounds including 19-21, 23-27, aniline (compound 28) and bromobenzene (compound 29), dissolved in MeOH, was injected at five isochratic elution, at 40, 45, 50, 55, and 60% MeOH. Then the mixture was injected at fast gradient elution to establish the correlation from Eq. (1). The fast linear gradient elution was optimized for 30-100% MeOH in aqueous buffer with 10 min runtime.
# (§2) Cucurbitacins lipophilicity was measured by RP-HPLC. […] Due to its high viscosity, aqueous MeOH required a shorter column than the one applied for ACN. First, the C18 columns were calibrated against a standard mixture, and the relationships established between the fast gradient tR and φ0 or published CHI (see Eqs. (2)-(4) from Table 2). Second, cucurbitacins were injected at fast gradient elution under similar conditions, and their CHI calculated (Table 4) from Eqs. (2)-(4). Eqs.
# HepG2 cells [4] = assay: cells; conditions: read-out: EC50 cytoprotection; Table 7; HepG2 against CCl4 toxicity; estimated
# From the text: Experimental conditions were standardized on silybin. […]
# The ratio of IC50-to-EC50 (hereafter T/A) is also indicated in this table, which gives the margin between toxic and cytoprotective concentrations.
# HSC-T6 cells [5] = assay: Serum-driven HSC-T6 proliferation, experiment 1 (4 h challenge, two days drug-free growth); type: cell-based, rat; conditions: HSC-T6, 4 h challenge, then two days drug-free media
# Experimental: The proliferation effect of serum on HSC-T6 cells was optimized and cucurbitacin antiproliferative activity was measured. Serum contains a large number of growth factors, hormones and other nutrients, which help cells to grow and multiply. Several trials were conducted. In experiment 1, cells were challenged with cucurbitacin analogs for 4 h and then cells were grown in drug-free media for two additional days.
# HSC-T6 cells were photographed under phase-contrast microscope to record possible changes in cell morphology during experiment 1. […] We are monitoring specifically the effect of compound on the cells, cell recovery after 4 h challenge, and relative cell proliferation. […] Live cells are quantified at the end of the assay (row 4) with MTT dye.
# (§3) We established several experimental conditions such as 4 hours of incubation time with cucurbitacin, and 2 day cell incubation with fresh media after challenging with cucurbitacin (Exp. 1). Other experiments involved addition of cucurbitacin for 24 hours over starved cells (Exp. 2) vs. proliferating cells (Exp. 3), and one day incubation of cells with fresh media after challenge. […] Because of that, the challenge time was increased to 24 hours (Exp. 2 and 3).
# We modified this approach. Our assay included a second control (ZC) supplemented with no serum intended to measure cucurbitacin anti-proliferation effect relative to the number of cells generated during challenge instead of the total number of cells present in each well.
# HepG2 cells [6] = assay: Cucurbitacins cytotoxicity on HepG2 cells (MTT viability assay); type: cell-based, human
# Experimental: HepG2 (human hepatocellular carcinoma, ATCC) cells were grown in EMEM (Gibco, Grand Island, N.Y.) supplemented with 10% fetal bovine serum (FBS), and 1% penicillin/fungizone mixture (Gibco). Thabrew's optimized procedure (Thabrew et al., J. Pharm. Pharmcol. 49 (1994) 1442, the entire disclosure of which is herein incorporated by reference) was followed. Cells were batch cultured for 10 days, then seeded at concentration of 30,000 cells/well in fresh media in 96-well microtiter plastic plates at 37° C. for a day. Then cells were exposed to different concentrations of cucurbitacins at final volume of 100 μl/well. Five-fold serial dilution of compounds was carried out in the plate for five consecutive wells. After 24 h of incubation with chemicals, live cells were visualized using the MTT viability assay (Promega, Madison, Wis.). The absorbance was measured at 570 nm. Negative (without cells) and positive (without test chemicals) controls were also incubated with each plate. […] At least three reproducible experiments were performed per compound with three replicate wells per concentration.
# Cells were challenged with cu-curbitacins at various concentrations for a day and then live cells quantified with MTT dye. This period of time measures exclusively compounds cytotoxicity, while longer incubation time may lead to interference from metabolites.
# [7] = mouse, in vivo; cited from earlier work
# HSC-T6 cells [8] = assay: Serum-driven HSC-T6 proliferation, experiment 3 (24 h, proliferating cells); type: cell-based, rat; conditions: HSC-T6, 24 h, proliferating cells; read-out: Experiment 3 EC50 (A)
# Experimental: (§4) To overcome this problem, the amount of incubation time was increased to 24 h, and cucurbitacin activity measured on starved (Exp. 2) or proliferative (Exp. 3) cells (Table 8). Cells turned quiescent when serum was not supplemented for one day (Exp. 2). Activity of a few compounds was monitored on quiescent cells, and their activity compared to the ones measured on proliferating cells (Exp. 3).
# as §3, with “challenge. The 4 hour incubation period with cucurbitacin triggered anti-proliferation effect. This effect, however, was hindered by a second cycle of cell proliferation during the two-day cell growth period (see silybin, E and I glucosides, and for I-nPr).” for “challenge.”
# (§5) In experiment 3, only 40% of the cells divided. The ratio of EC50 values for exp. 2 and exp. 3 varied between 3.6 and 12.7. This may indicate differential cytotoxicity of silybin and cucurbitacin analogs over quiescent and active stellate cells. In other words, compounds show higher anti-proliferative activity on active cells than on quiescent cells.
# [9] = Chromatographic hydrophobicity index (CHI) by RP-HPLC in buffered acetonitrile; type: physicochemical; set-up: key: CHI = φ0 (isocratic hydrophobicity index), = A·tR + B; ACN % scale; conditions: for CHIACN1: buffered acetonitrile pH 7.0, Alltima C18 250 mm, Eq. (2) from isocratic φ0; for CHIACN2: buffered acetonitrile pH 7.0, Eq. (3) calibrated against published CHI
# Experimental: as §1
# All standard compounds were purchased from Acros (Acros Organics, NJ). The chromatographic lipophilicity or hydrophobicity was determined applying Valkó's technique (Valkó et al., Anal. Chem. 69 (1997) 2022, the entire disclosure of which is herein incorporated by reference). A standard mixture of seven compounds was prepared in solution: theophylline (compound 19), benzimidazole (compound 20), acetophenone (compound 21), indole (compound 22), propiophenone (compound 23), butyrophenone (compound 24), and valerophenone (compound 25). […] The retention factor, log k=log((tR-t0)/t0), was calculated for each analyte from five good injections of […] sample. The dead time (t0) was measured by injecting NaNO3 together with the sample. Then, the log k values were plotted against isocratic ACN concentrations to establish the linear regression equations for each analyte. From each straight line the isocratic hydrophobicity index was computed, φ0=(intercept/slope). Further, the calibration mixture was injected at fast gradient elution, 0-22 min 0-100% ACN, and three additional minutes at 100% ACN. The φ0 values for the test compounds were plotted against gradient retention time and the linear equation determined from the following equation: φ0=CHI=AtR+B (1)
# The gradient elution conditions were similar to the one from the first approach.
# as §2
# HepG2 cells [10] = type: cell-based, human
# Experimental: The activity of two toxins was studied first on HepG2 cells—bromobenzene (BB) and CCl4. Cells were challenged with the toxins at different concentration levels. Precipitate formation was observed when BB was diluted with media prior to addition to the cells; therefore, both the precipitate and the supernatant were added separately over cells to study their toxic effect.
# HSC-T6 cells [11] = assay: Serum-driven HSC-T6 proliferation, experiment 2 (24 h, starved/quiescent cells); type: cell-based, rat; conditions: HSC-T6, 24 h, starved (quiescent) cells; read-out: Experiment 2 EC50
# Experimental: as §4
# as §3, with “challenge. The 4 hour incubation period with cucurbitacin triggered anti-proliferation effect. This effect, however, was hindered by a second cycle of cell proliferation during the two-day cell growth period (see silybin, E and I glucosides, and for I-nPr).” for “challenge.”
# as §5
# [12] = ABTS*+ Radical Cation Decolorization Assay; conditions: read-out: concentration of 50% inhibition
# Experimental: Cucurbitacin B activity was monitored at 50 μM, 100 μM, and 1.8 mM. The time interval was expanded up to 2 hours in case cucurbitacin B was reacting slowly.
# [13] = in vivo; cited from earlier work
# [14] = DPPH* Stable Free Radical Scavenging Assay
# Experimental: Cucurbitacin antioxidant activity was studied first by the DPPH* Stable Free Radical Scavenging Assay (Cotelle et al., Free radical Biology & Medicine 20(1): 35-43, 1996). Experimental conditions were optimized on the standard compound ascorbic acid. Data indicated 30% activity at 50 μM concentration, and 100% activity at 100 μM for ascorbic acid. While the original assay required 10 minutes incubation time for the reaction to occur, this time was increased up to 30 minutes in case cucurbitacin were reacting slower than other reagents.
Structure (SMILES),IC50 (HSC-T6 cells [2]) [µM],CHIMeOH [3],EC50 (HepG2 cells [4]) [µM],EC50 (HSC-T6 cells [5]) [µM],EC50 (HSC-T6 cells [8]) [µM],CHIACN1 [9],CHIACN2 [9],other results
"O=c1c(O)c(-c2ccc(O)c(O)c2)oc2cc(O)cc(O)c12 [quercetin, reference compound]",,,,,,,,inhibition of lipid peroxidation [1]: 100%
"CC(C)(O)/C=C/C(=O)[C@](C)(O)[C@H]1[C@H](O)C[C@@]2(C)[C@@H]3CC=C4[C@@H](C[C@H](O)C(=O)C4(C)C)[C@]3(C)C(=O)C[C@]12C [D, cucurbitacin D]",26,60.40,9,3.8,0.07,58.31,55.83,"IC50 (HepG2 cells [6]; Table 4, 24 h incubation, MTT): 77.3 µM; IC50 (HepG2 cells [6]; Table 5): 77.3 ± 8.7 µM; IC50 (HepG2 cells [6]; Table 7): 77.3 µM; capillary permeability [7]: enhanced capillary permeability"
"Brc1ccccc1 [Bromobenzene (29), bromobenzene, reference compound]",,,,,,,,"cell viability (HepG2 cells [10]; HepG2, toxin at 20 nM): no viability; CHIMeOH (b) ([3]; standard compounds, isochratic and gradient elution of standard mixture): 69.43 + 0.07"
COC1=CC2C(=CCC3C2(C)C(=O)CC2(C)C(C(C)(O)C(=O)C=CC(C)(C)O)C(O)CC32C)C(C)(C)C1=O (centres unmarked) [I-Me],6.4,66.58,5.3,3.4,0.11,64.84,65.95,"EC50 (HSC-T6 cells [11]): 1.4 µM; IC50 (HepG2 cells [6]; Table 4, 24 h incubation, MTT): 15 µM; IC50 (HepG2 cells [6]; Table 5): 15 ± 5.6 µM; IC50 (HepG2 cells [6]; Table 7): 15 µM"
ClC(Cl)(Cl)Cl [CCl4],,,,,,,,"cell viability (HepG2 cells [10]; HepG2, toxin at 4.5×10^−3 M): ~50%"
COC1=CC2C(=CCC3C2(C)C(=O)CC2(C)C(C(C)(O)C(=O)CCC(C)(C)O)C(O)CC32C)C(C)(C)C1=O [L-Me],6.7,66.58,5,10.8,0.18,64.84,65.95,EC50 (HSC-T6 cells [11]): 1 µM
"Cc1c(C)c2c(c(C)c1O)CCC(C)(C(=O)O)O2 (centres unmarked) [trolox, reference compound]",,,,,,,,IC50 [12]: 580 µM
"CC(=O)OC(C)(C)/C=C/C(=O)[C@@](C)(O)[C@H]1[C@H](O)C[C@@]2(C)[C@@H]3CC=C4[C@@H](CC(=O)[C@@H](O)C4(C)C)[C@]3(C)C(=O)C[C@]12C [iso-B, iso-cucurbitacin B]",,68.50,,,,72.86,78.38,"protective and preventive activity [13]: significantly reducing serum enzymes level, steatosis, inflammation, and experimental cholestasis"
O=C1O[C@H]([C@@H](O)CO)C(O)=C1O [ascorbic acid],,,,,,,,DPPH activity ([14]; at 50 μM): 30%; DPPH activity ([14]; at 100 μM): 100%
